Measurements published in paper PMC8838850, “Synthesis, Antimicrobial, Anti-Virulence and Anticancer Evaluation of New 5(4H)-Oxazolone-Based Sulfonamides” (Molecules, 2022).
Values after ≈ are worked out from the molar mass of the structure shown.

How the values were obtained:
BxPC-3 = assay: SRB cellular proliferation assay; format: cell-based, human; conditions: Homo sapiens, BxPC-3 cells, mean ± SD (n = 3), read-out: IC50
Experimental: (§1) The pancreatic human cancer cell lines BxPC-3 and Panc-1, the human hepatocellular carcinoma (HepG-2), and the normal immortalized pancreatic cell line HPDE, that were used in this study, were obtained from the American Type Culture Collection (Rockville, USA). Cell lines were cultured and treated with the tested compounds or dimethyl sulfoxide (DMSO) as previously described. Cells were cultivated in DMEM medium (Invitrogen, Carlsbad, CA, USA), supplemented with streptomycin, penicillin and fetal bovine serum (FCS) (Invitrogen, Carlsbad, CA, USA). The sulforhodamine B (SRB) assay was employed to assess the anti-proliferative effects of tested compounds on cancer cells. Cell lines were incubated and regularly treated with DMSO or increasing doses of tested compounds for 48 h. The cells were fixed with 10% trichloroacetic acid and stained with SRB fluorescent dye for 30 min. Then, the bounded SRB dye to cellular proteins was dissolved in 10 mM Tris base after washing excess dye with 1% acetic acid. The absorbance was measured at 510 nm in a reader (Biotek, Winooski, VT, USA).

HepG-2 = assay: SRB cellular proliferation assay; format: cell-based, human; conditions: Homo sapiens, HepG2, HepG-2 cells, mean ± SD (n = 3), read-out: IC50
Experimental: as §1

Panc-1 = assay: SRB cellular proliferation assay; format: cell-based, human; conditions: Homo sapiens, Panc-1 cells, mean ± SD (n = 3), read-out: IC50
Experimental: as §1

[1] = tested on: Escherichia coli ATCC 10536; assay: MIC by agar dilution; format: cell-based; conditions: ATCC10536, 37 °C, 20 h, read-out: Minimum inhibitory concentration (MIC)
Experimental: (§2) The MICs of the synthesized compound were determined by agar dilution method according to the Clinical Laboratory and Standards Institute Guidelines (CLSI, 2015). Briefly, the tested strains were incubated overnight in tryptic soy broth (TSB) (Oxoid, United Kingdom) and then diluted in Muller–Hinton (MH) broth (Oxoid, United Kingdom) to turbidity approximating to the equivalent of 0.5 McFarland standard. The suspensions were further diluted with sterile saline (1:10) and standardized inoculums (approximately 10^4 CFU per spot) were spotted on the surfaces of MH agar (Oxoid, United Kingdom) plates containing different concentrations of tested compounds and a control plate. The MICs were the lowest concentrations that inhibit growth on the plates after incubation at 37 °C for 20 h.

[2] = tested on: Klebsiella pneumoniae ATCC 27736; assay: MIC by agar dilution; format: cell-based; conditions: ATCC27736, 37 °C, 20 h, read-out: Minimum inhibitory concentration (MIC)
Experimental: as §2

[3] = tested on: Micrococcus spp. ATCC 10240; assay: MIC by agar dilution; format: cell-based; conditions: ATCC10240, 37 °C, 20 h, read-out: Minimum inhibitory concentration (MIC)
Experimental: as §2

[4] = tested on: Salmonella typhimurium ATCC 14028; assay: MIC by agar dilution; format: cell-based; conditions: Salmonella enterica, 37 °C, 20 h, read-out: Minimum inhibitory concentration (MIC)
Experimental: as §2

[5] = tested on: Staphylococcus aureus ATCC 6538; assay: MIC by agar dilution; format: cell-based; conditions: ATCC6538, 37 °C, 20 h, read-out: Minimum inhibitory concentration (MIC)
Experimental: as §2

[6] = tested on: Staphylococcus epidermidis ATCC 12228; assay: MIC by agar dilution; format: cell-based; conditions: ATCC12228, 37 °C, 20 h, read-out: Minimum inhibitory concentration (MIC)
Experimental: as §2

[7] = tested on: Pseudomonas aeruginosae ATCC 47085; assay: MIC by agar dilution; format: cell-based, Pseudomonas aeruginosa; conditions: ATCC47085, 37 °C, 20 h, read-out: Minimum inhibitory concentration (MIC)
Experimental: as §2

[8] = tested on: Aspergillus niger ATCC 16404; assay: MIC by agar dilution (antifungal); format: cell-based; conditions: for MIC: ATCC16404, read-out: Minimum inhibitory concentration (MIC)
Experimental: as §2

[9] = tested on: Candida albicans ATCC 10231; assay: MIC by agar dilution (antifungal); format: cell-based; conditions: for MIC: Candida albicans, ATCC10231, Candida albicans ATCC 10231, read-out: Minimum inhibitory concentration (MIC)
Experimental: as §2

Compound	IC50 (BxPC-3) [µg/mL]	IC50 (Panc-1) [µg/mL]	MIC [1] [µg/mL]	MIC [2] [µg/mL]	MIC [3] [µg/mL]	MIC [4] [µg/mL]	MIC [5] [µg/mL]	MIC [6] [µg/mL]	MIC [7] [µg/mL]	MIC [8] [µg/mL]	MIC [9] [µg/mL]	melting point [°C]	IC50 (HepG-2) [µg/mL]	Minimum inhibitory concentration (MIC) [8] [µg/mL]	Minimum inhibitory concentration (MIC) ([9]; Candida albicans ATCC 10231) [µg/mL]
COc1cccc2c1C(=O)c1c(O)c3c(c(O)c1C2=O)C[C@@](O)(C(=O)CO)C[C@@H]3O[C@H]1C[C@H](N)[C@H](O)[C@H](C)O1 [Doxorubicin, reference compound]	7.31 ± 1.12 (≈ 13.4 µM)	6.9 ± 0.93 (≈ 12.7 µM)											5.11 ± 0.98 (≈ 9.4 µM)		
CC1(C)S[C@@H]2[C@H](NC(=O)[C@H](N)c3ccc(O)cc3)C(=O)N2[C@H]1C(=O)O [Amoxycillin, reference compound]			0.5 (≈ 1.37 µM)	1 (≈ 2.74 µM)	0.25 (≈ 0.684 µM)	1 (≈ 2.74 µM)	0.5 (≈ 1.37 µM)	0.5 (≈ 1.37 µM)	2 (≈ 5.47 µM)						
Cc1cc(NS(=O)(=O)c2ccc(N)cc2)no1 [Sulphamethoxazole, reference compound]			1 (≈ 3.95 µM)	2 (≈ 7.9 µM)	1 (≈ 3.95 µM)	2 (≈ 7.9 µM)	2 (≈ 7.9 µM)	2 (≈ 7.9 µM)	4 (≈ 15.8 µM)						
CO/N=C(\C(=O)N[C@@H]1C(=O)N2C(C(=O)O)=C(COC(C)=O)CS[C@H]12)c1csc(N)n1 [Cefotaxime, reference compound]			0.125 (≈ 0.274 µM)	0.5 (≈ 1.1 µM)	0.25 (≈ 0.549 µM)	1 (≈ 2.2 µM)	0.5 (≈ 1.1 µM)	0.25 (≈ 0.549 µM)	1 (≈ 2.2 µM)						
C[C@@H]1[C@H](O)[C@@H](C)/C=C/C=C/CC/C=C/C=C/C=C/C=C/C(O[C@H]2O[C@H](C)[C@@H](O)[C@H](N)[C@@H]2O)CC2O[C@](O)(CC(O)C(O)CCC(O)CC(O)CC(O)CC(=O)O[C@H]1C)CC(O)C2C(=O)O (stereo partly shown) [Nystatin, reference compound]														4 (≈ 4.32 µM)	4 (≈ 4.32 µM)

More lines, main results first:

IC50 (BxPC-3) [µg/mL]	IC50 (Panc-1) [µg/mL]	MIC [1] [µg/mL]	MIC [2] [µg/mL]	MIC [3] [µg/mL]	MIC [4] [µg/mL]	MIC [5] [µg/mL]	MIC [6] [µg/mL]	MIC [7] [µg/mL]	MIC [8] [µg/mL]	MIC [9] [µg/mL]	melting point [°C]	Compound	IC50 (HepG-2) [µg/mL]	Minimum inhibitory concentration (MIC) [8] [µg/mL]	Minimum inhibitory concentration (MIC) ([9]; Candida albicans ATCC 10231) [µg/mL]
21.8 ± 2.98 (≈ 53.4 µM)	16.1 ± 1.82 (≈ 39.5 µM)	> 32	> 32	2 (≈ 4.9 µM)	> 32	2 (≈ 4.9 µM)	2 (≈ 4.9 µM)	> 32	> 32	> 32	191 to 193	Cc1ccc(S(=O)(=O)Nc2ccccc2C2=N/C(=C/c3ccco3)C(=O)O2)cc1 [Compound 9i, (E)-N-(2-(4-(Furan-2-ylmethylene)-5-oxo-4,5-dihydrooxazol-2-yl)phenyl)-4-methylbenzenesulfonamide]	27 ± 5.32 (≈ 66.1 µM)		
18.1 ± 3.56 (≈ 35.5 µM)	25.3 ± 1.91 (≈ 49.8 µM)	4 (≈ 7.87 µM)	16 (≈ 31.5 µM)	2 (≈ 3.93 µM)	16 (≈ 31.5 µM)	4 (≈ 7.87 µM)	2 (≈ 3.93 µM)	32 (≈ 62.9 µM)	> 32	> 32	230 to 232	COc1cc(/C=C2/N=C(c3ccccc3NS(=O)(=O)c3ccc(C)cc3)OC2=O)cc(OC)c1OC [Compound 9d, (E)-4-Methyl-N-(2-(5-oxo-4-(3,4,5-trimethoxybenzylidene)-4,5-dihydrooxazol-2-yl)phenyl)be-nzenesulfonamide]	22.7 ± 2.3 (≈ 44.7 µM)		
21.5 ± 1.08 (≈ 44.9 µM)	15.1 ± 4.13 (≈ 31.6 µM)	4 (≈ 8.36 µM)	8 (≈ 16.7 µM)	4 (≈ 8.36 µM)	8 (≈ 16.7 µM)	8 (≈ 16.7 µM)	4 (≈ 8.36 µM)	16 (≈ 33.4 µM)	8 (≈ 16.7 µM)	4 (≈ 8.36 µM)	220 to 222	COc1ccc(OC)c(/C=C2/N=C(c3ccccc3NS(=O)(=O)c3ccc(C)cc3)OC2=O)c1 [Compound 9c, (E)-N-(2-(4-(2,5-diMethoxybenzylidene)-5-oxo-4,5-dihydrooxazol-2-yl)phenyl)-4-methylbenzenesulfonamide]	19.1 ± 3.23 (≈ 39.9 µM)		
21.4 ± 2.15 (≈ 50.5 µM)	16 ± 3.18 (≈ 37.8 µM)	> 32	> 32	8 (≈ 18.8 µM)	> 32	16 (≈ 37.7 µM)	8 (≈ 18.8 µM)	> 32	> 32	> 32	196 to 198	Cc1ccc(S(=O)(=O)Nc2ccccc2C2=N/C(=C/c3cccs3)C(=O)O2)cc1 [Compound 9j, (E)-4-Methyl-N-(2-(5-oxo-4-(thiophen-2-ylmethylene)-4,5-dihydrooxazol-2-yl)phenyl)benzenesulfonamide]	25.54 ± 0.144 (≈ 60.2 µM)		
25.7 ± 4.89 (≈ 49 µM)	29.3 ± 4.23 (≈ 55.8 µM)	2 (≈ 3.81 µM)	8 (≈ 15.2 µM)	2 (≈ 3.81 µM)	16 (≈ 30.5 µM)	2 (≈ 3.81 µM)	2 (≈ 3.81 µM)	16 (≈ 30.5 µM)	> 32	> 32	235 to 237	Cc1ccc(S(=O)(=O)Nc2ccccc2C2=N/C(=C/c3ccc(OCc4ccccc4)cc3)C(=O)O2)cc1 [Compound 9g, (E)-N-(2-(4-(4-(Benzyloxy)benzylidene)-5-oxo-4,5-dihydrooxazol-2-yl)phenyl)-4-methylbenzenesulfonamide]	32.5 ± 1.45 (≈ 62 µM)		
